{"source": "patent US20260272966A1", "about": "“COMBINATION TREATMENT FOR OVARIAN CANCER” (THE JOHNS HOPKINS UNIVERSITY, priority 2023, published 2026)", "key": {"ACRP": {"system": "ACRP", "assay": "Cell viability assay (CellTiter-Blue), ACRP", "type": "cell-based", "conditions": "for toxicity of the chemotherapeutic agent with ivospemin co-treatment (cell viability): 2 μM ivospemin 96 h, chemotherapeutic last 24 h", "description": "(§1) Cell lines, culture conditions, and reagents. Ovarian adenocarcinoma cell lines A2780 and ACRP were maintained in RPMI 1640 containing 10% fetal bovine serum. Ovarian adenocarcinoma lines CaOV-3 and OV90 were maintained in DMEM supplemented with 10% fetal bovine serum. ID8 mouse ovarian surface epithelial cells (MOSE) overexpressing VEGF and β-Defensin (VDID8+) were maintained in RPMI 1640 supplemented with 10% fetal bovine serum. […] All chemotherapeutics were purchased commercially from Sigma-Aldrich (St. Louis, MO).\n(§2) Cell viability assays. Cells were seeded in triplicate wells per condition with a total cell count of 2×10^3 cells per well of a 96-well plate and allowed to adhere overnight. Cells then received 100 μL fresh medium with increasing concentrations of ivospemin. Following 96 hours of ivospemin monotherapy, 20 μL of CellTiter-Blue reagent (Promega, Madison, WI) was added, and following a 3-hour incubation, the fluorescence was measured in black, clear-bottom plates at 560Ex/590Em on a SpectraMax M5 (Molecular Devices, Sunnyvale CA). Wells containing medium alone were used as background controls. The combination chemotherapy/ivospemin experiment conditions were identical except following 72 hours of ivospemin exposure, cells received fresh medium with ivospemin and the appropriate chemotherapeutic. After an additional 24 hours (96 total hours of ivospemin, 24 hours of chemotherapy), cell viability was determined using the CellTiter-Blue cell viability assay. Results are presented as percentages relative to untreated cells. Each bar is an average of at least 3 independent biological experiments (each experiment is noted by an individual point)."}, "CaOV-3": {"system": "CaOV-3", "assay": "Cell viability assay (CellTiter-Blue), CaOV-3", "type": "cell-based", "conditions": "for toxicity of the chemotherapeutic agent with ivospemin co-treatment (cell viability): CaOV-3, 2 μM ivospemin 96 h, chemotherapeutic last 24 h", "description": "as §1, §2"}, "OV90": {"system": "OV90", "assay": "Cell viability assay (CellTiter-Blue), OV90", "type": "cell-based", "conditions": "for toxicity of the chemotherapeutic agent with ivospemin co-treatment (cell viability): OV90, 2 μM ivospemin 96 h, chemotherapeutic last 24 h", "description": "as §1, §2"}, "[1]": {"system": "ovarian adenocarcinoma cell lines", "assay": "Cell viability, ovarian adenocarcinoma cell lines taken together", "type": "cell-based", "conditions": "for added in vitro toxicity/benefit of the chemotherapeutic over ivospemin (SBP-101) alone: cisplatin-sensitive and cisplatin-resistant ovarian cancer cell lines", "description": "as §1, §2\nThe cisplatin-sensitive ovarian adenocarcinoma lines, A2780 and OV90 (FIG. 4A), and the cisplatin-resistant ovarian adenocarcinoma lines, ACRP and CaOV-3 (FIG. 4B), were treated for 96 hours with concentrations of ivospemin ranging from 500 nM to 10 μM. […] These four ovarian adenocarcinoma lines were then treated with various chemotherapeutic agents including gemcitabine (50 nM), topotecan (50 nM), paclitaxel (2 nM) and docetaxel (2 nM). These agents represent standard of care chemotherapeutic options used with some regularity in patients with platinum-resistant ovarian cancer. Cells were treated with three increasing concentrations of each chemotherapy alone to determine an appropriate dose prior to combination studies."}, "A2780": {"system": "A2780", "assay": "Cell viability assay (CellTiter-Blue), A2780", "type": "cell-based", "conditions": "for toxicity of the chemotherapeutic agent with ivospemin co-treatment (cell viability): A2780, 2 μM ivospemin 96 h, gemcitabine 50 nM, topotecan 50 nM, paclitaxel 2 nM, docetaxel 2 nM last 24 h", "description": "as §1, §2"}, "[2]": {"system": "VDID8+ syngeneic ovarian epithelial cancer cells", "assay": "VDID8+ syngeneic mouse model of ovarian cancer (survival, ascites)", "conditions": "for average time between VDID8+ cell injection and ascites formation: 15% weight gain or visible abdominal swelling; for average ascites volume at first drain / effect on survival as single agent: monotherapy; for effect on survival as single agent: VDID8+ model", "method": "Syngeneic mouse model. Female C57BL/6J wild-type mice (7-8 weeks old, The Jackson Laboratory) were housed at the Johns Hopkins Sidney Kimmel Comprehensive Cancer Center Animal Resources Core and cared for in accordance with the policies set forth by the Johns Hopkins University Animal Care and Use Committee. VEGF-β-Defensin ID8 (VDID8+) syngeneic mouse ovarian surface epithelial cells (first developed by Dr. Katherine Roby) were injected intraperitoneally into C57BL/6 mice (350,000 cells/mouse) (Roby et al., 2000). Treatment of mice began three days following VDID8^+ injection. Mice in the combination study were treated with the following dosing schedule: 24 mg/kg ivospemin 2qw×3, alternating weeks; 30 mg/kg gemcitabine qw×4; 1 mg/kg topotecan 3qw×4. All drugs were administered intraperitoneally. Following production of palpable ascites fluid or a 15% weight gain, animals were drained of their ascites fluid, which was measured as a marker for tumor burden. Decisions for subsequent drains was determined by the same criteria. No animals were drained more than once a week, and animals who survived to a fourth drain were subsequently euthanized.\nStatistical analysis. All statistical testing was completed using GraphPad Prism software (v9.5.1, La Jolla, CA). […] Multiple testing correction was performed based on the Benjamini-Hochberg method. […] All mouse survival curves were analyzed using the log-rank (Mantel-Cox) test. Mouse ascites data were analyzed by one-way ANOVA and then individual comparisons were analyzed by two-sided Welch's t-tests unless otherwise specified. Multiple testing correction was performed based on the Benjamini-Hochberg method. […] P-value indications are as follows: *<0.05; **<0.01; ***<0.001; ****<0.0001."}, "tumor putrescine levels": {"system": "tumor putrescine levels", "conditions": "eflornithine infusion; cited from earlier work"}, "[3]": {"conditions": "in vivo; cited from earlier work"}, "ODC": {"system": "ODC", "assay": "ODC activity in treated ovarian adenocarcinoma line", "type": "cell-based, human", "conditions": "ivospemin 5 μM, doxorubicin 500 nM, 48 hours", "experimental": "(§3) FIG. 11. […] The activity of the polyamine catabolic enzyme SSAT and the polyamine biosynthetic enzyme ODC was evaluated.\n(§4) The activity of polyamine catabolic enzyme SSAT and polyamine biosynthetic enzyme ODC were evaluated."}, "SSAT": {"system": "SSAT", "assay": "SSAT activity in treated ovarian adenocarcinoma line", "type": "cell-based, human", "conditions": "ivospemin 5 μM, doxorubicin 500 nM, 48 hours", "experimental": "as §3, §4"}, "VDID8+ cells": {"system": "VDID8+ cells", "conditions": "NSG mice"}}, "note": "Entries after “also recorded” stand apart in the source; their conditions may differ."}
{"compound": "CC[C@@]1(O)C(=O)OCc2c1cc1n(c2=O)Cc2cc3c(CN(C)C)c(O)ccc3nc2-1", "note": "[topotecan]", "values": [{"measurement": "toxicity of the chemotherapeutic agent with ivospemin co-treatment (cell viability)", "setting": "ACRP", "result": "greater toxicity than ivospemin alone; also recorded: significantly exceeded the effect of ivospemin alone"}, {"measurement": "toxicity of the chemotherapeutic agent with ivospemin co-treatment (cell viability)", "setting": "CaOV-3", "result": "significantly increased; also recorded: increased the toxicity"}, {"measurement": "toxicity of the chemotherapeutic agent with ivospemin co-treatment (cell viability)", "setting": "OV90", "result": "did increase; also recorded: increased the toxicity"}, {"measurement": "added in vitro toxicity/benefit of the chemotherapeutic over ivospemin (SBP-101) alone", "setting": "[1]", "result": "increased ivospemin toxicity; also recorded: increased the in vitro toxicity of SBP-101"}, {"measurement": "toxicity of the chemotherapeutic agent with ivospemin co-treatment (cell viability)", "setting": "A2780", "result": "significantly exceeded the effect of ivospemin alone"}, {"measurement": "average time between VDID8+ cell injection and ascites formation", "setting": "[2]", "result": 43.4, "unit": "days"}, {"measurement": "average ascites volume at first drain", "setting": "[2]", "result": 3.19, "unit": "mL"}, {"measurement": "effect on survival as single agent", "setting": "[2]", "result": "Neither gemcitabine nor topotecan produced a statistically significant survival benefit; also recorded: little effect"}]}
{"compound": "CC(=O)O[C@@]12CO[C@@H]1C[C@H](O)[C@@]1(C)C(=O)[C@H](O)C3=C(C)[C@@H](OC(=O)[C@H](O)[C@@H](NC(=O)OC(C)(C)C)c4ccccc4)C[C@@](O)([C@@H](OC(=O)c4ccccc4)[C@H]21)C3(C)C", "note": "[docetaxel]", "values": [{"measurement": "toxicity of the chemotherapeutic agent with ivospemin co-treatment (cell viability)", "setting": "OV90", "result": "did not increase"}, {"measurement": "added in vitro toxicity/benefit of the chemotherapeutic over ivospemin (SBP-101) alone", "setting": "[1]", "result": "little to no benefit; also recorded: did not have any added benefit"}]}
{"compound": "NCCCC(N)(C(=O)O)C(F)F", "note": "(stereo not shown) [eflornithine, 2,5-diamino-2-(difluoromethyl) pentanoic acid]", "values": [{"measurement": "decrease in tumor putrescine levels", "setting": "tumor putrescine levels", "result": 90, "unit": "%"}]}
{"compound": "CC(=O)O[C@H]1C(=O)[C@@]2(C)[C@H]([C@H](OC(=O)c3ccccc3)[C@]3(O)C[C@H](OC(=O)[C@H](O)[C@@H](NC(=O)c4ccccc4)c4ccccc4)C(C)=C1C3(C)C)[C@]1(OC(C)=O)CO[C@@H]1C[C@@H]2O", "note": "[paclitaxel]", "values": [{"measurement": "toxicity of the chemotherapeutic agent with ivospemin co-treatment (cell viability)", "setting": "OV90", "result": "did not increase"}, {"measurement": "added in vitro toxicity/benefit of the chemotherapeutic over ivospemin (SBP-101) alone", "setting": "[1]", "result": "little to no benefit"}, {"measurement": "added in vitro toxicity/benefit of the chemotherapeutic over ivospemin (SBP-101) alone", "setting": "[1]; listed as Paclitaxel", "result": "did not have any added benefit"}]}
{"compound": "Nc1ccn([C@@H]2O[C@H](CO)[C@@H](O)C2(F)F)c(=O)n1", "note": "[gemcitabine]", "values": [{"measurement": "toxicity of the chemotherapeutic agent with ivospemin co-treatment (cell viability)", "setting": "ACRP", "result": "greater toxicity than ivospemin alone; also recorded: significantly exceeded the effect of ivospemin alone"}, {"measurement": "toxicity of the chemotherapeutic agent with ivospemin co-treatment (cell viability)", "setting": "CaOV-3", "result": "significantly increased; also recorded: increased the toxicity"}, {"measurement": "toxicity of the chemotherapeutic agent with ivospemin co-treatment (cell viability)", "setting": "OV90", "result": "did increase; also recorded: increased the toxicity"}, {"measurement": "added in vitro toxicity/benefit of the chemotherapeutic over ivospemin (SBP-101) alone", "setting": "[1]", "result": "increased ivospemin toxicity; also recorded: increased the in vitro toxicity of SBP-101"}, {"measurement": "toxicity of the chemotherapeutic agent with ivospemin co-treatment (cell viability)", "setting": "A2780", "result": "significantly exceeded the effect of ivospemin alone"}, {"measurement": "average time between VDID8+ cell injection and ascites formation", "setting": "[2]", "result": 41.7, "unit": "days"}, {"measurement": "average ascites volume at first drain", "setting": "[2]", "result": 2.03, "unit": "mL"}, {"measurement": "effect on survival as single agent", "setting": "[2]", "result": "Neither gemcitabine nor topotecan produced a statistically significant survival benefit"}, {"measurement": "effect on survival as single agent", "setting": "[2]; listed as Gemcitabine", "result": "little effect"}]}
{"compound": "COc1cccc2c1C(=O)c1c(O)c3c(c(O)c1C2=O)C[C@@](O)(C(=O)CO)C[C@@H]3OC1CC(N)C(O)C(C)O1", "note": "(stereo partly drawn) [doxorubicin, (8S,10S)-10-(4-amino-5-hydroxy-6-methyl-tetrahydro-2H-pyran-2-yloxy)-6,8,11-trihydroxy-8-(2-hydroxyacetyl)-1-methoxy-7,8,9,10-tetrahydrotetracene-5,12-dione]", "values": [{"measurement": "nausea and vomiting, share of people treated", "setting": "[3]", "result": "30-90%"}, {"measurement": "ODC activity", "setting": "ODC", "result": "does not have any effect"}, {"measurement": "median survival", "setting": "[2]; ivospemin 24 mg/kg 2qw×4 alternating weeks, doxorubicin 0.5 mg/kg 2qw×4", "result": 96, "unit": "days"}, {"measurement": "effect on survival as single agent", "setting": "[2]", "result": "significantly increased"}, {"measurement": "SSAT activity", "setting": "SSAT", "result": "increases SSAT activity"}]}
{"compound": "CCNCCC(O)CNCCCCNCC(O)CCNCC", "note": "(stereo not shown) [ivospemin, 3,8,13,18-tetraazaicosane-6,15-diol]", "values": [{"measurement": "IC50", "setting": "ACRP; ivospemin 96 hours, cisplatin resistant", "result": 1410, "unit": "nM"}, {"measurement": "tumor burden and ascites formation", "setting": "VDID8+ cells", "result": "Neither ivospemin alone nor the combination treatment decrease tumor burden or delayed ascites formation"}, {"measurement": "IC50", "setting": "CaOV-3; Homo sapiens, ivospemin 96 hours, CaOV-3, cisplatin resistant", "result": 2560, "unit": "nM"}, {"measurement": "IC50", "setting": "OV90; Homo sapiens, OV-90, ivospemin 96 hours, OV90, cisplatin sensitive", "result": 3.24, "unit": "µM"}, {"measurement": "IC50", "setting": "[1]; 96 hours, A2780, OV90, ACRP, CaOV-3, read-out: IC50 values, all four lines", "result": "950 to 3240", "unit": "nM"}, {"measurement": "ODC activity", "setting": "ODC", "result": "depression of ODC activity"}, {"measurement": "ODC activity", "setting": "ODC; listed as SBP-101", "result": "decreases ODC activity"}, {"measurement": "IC50", "setting": "A2780; Homo sapiens, ivospemin 96 hours, A2780, cisplatin sensitive", "result": 950, "unit": "nM"}, {"measurement": "average time between VDID8+ cell injection and ascites formation", "setting": "[2]", "result": 39.5, "unit": "days"}, {"measurement": "median survival", "setting": "[2]; days post-injection, ivospemin 24 mg/kg 2qw×3 alternating weeks, gemcitabine 30 mg/kg qw×4, topotecan 1 mg/kg 3qw×4, i.p.", "result": 52, "unit": "days"}, {"measurement": "increase in median survival compared to untreated (control) animals", "setting": "[2]; gemcitabine/topotecan combination study", "result": 20, "unit": "%"}, {"measurement": "average ascites volume at first drain", "setting": "[2]", "result": 1.15, "unit": "mL"}, {"measurement": "effect on survival as single agent", "setting": "[2]; listed as SBP-101", "result": "marked increase; also recorded: significantly increased"}, {"measurement": "SSAT activity", "setting": "SSAT", "result": "increases SSAT activity"}, {"measurement": "SSAT activity", "setting": "SSAT; listed as SBP-101", "result": "increase SSAT activity"}]}
